Consider 78 molecules from the METLIN SMRT retention time set (Domingo-Almenara et al. 2019).

A short description of this series: gradient 5% acetonitrile 3 min, to 50% in 2 min, to 85% in 15 min, held 3 min, 100 µL/min. The conditions noted are these: column: Zorbax Extend-C18 2.1 x 50 mm; eluents: water / acetonitrile, 0.1% formic acid. The gist of the method: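 Mixtures of ~100 pure standards were chromatographed on a Zorbax Extend-C18 column (2.1 × 50 mm, 1.8 μm) at 100 μL/min using water and acetonitrile, each with 0.1% formic acid. Detection used a quadrupole time-of-flight mass spectrometer in positive and negative ionization mode, and data collection spanned 3 months. Retention time was obtained from adduct peaks picked computationally and each checked manually.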
Consider `CN(C(=O)C1CCCN(c2ncnc3c2nc2n3CCCCC2)C1)c1ccccc1Cl` (stereo not drawn), for which the RP-LC retention time amounted to 846 s.

Regarding `COc1ccc(CNC(=O)CSc2ccc(N3CCCC(C(=O)NC4CC4)C3)nn2)cc1` (stereo not drawn), the RP-LC retention time is 631 s. Under `N#Cc1ccccc1NC(=O)NCC1CN(c2ccc3c(c2)OCO3)C(=O)O1` (stereo not drawn) stands 690 s; under `CCOCCOC1CCN(S(=O)(=O)Cc2ccccc2)CC1`, 856 s.

As for `CSc1ccc(-c2noc(CN3C(=O)COc4cc(C)ccc43)n2)cc1`, the RP-LC retention time came out at 1130 s. Under `Cc1cc(N(C)C)n2nc(CN3CCN(c4cccc(C)c4C)CC3)nc2n1` stands 655 s; under `O=C(NCc1cccs1)c1ccc(Cn2ccnc2)cc1`, 809 s; under `O=C(Cc1ccsc1)N1CCC2(CC1)N=C(c1cccc(Br)c1)NO2`, 889 s. As for `O=C([C@@H]1C[C@H](Oc2ccccc2)CN1C(=O)c1ccsc1)N1CCCC1`, the RP-LC retention time worked out at 756 s. Under `COc1ccc(-c2[nH]ncc2CN2CCC3(CCC3O)CC2)cc1` (stereo not drawn) stands 584 s. In turn, `COc1cccc(-n2c(=O)c(C(=O)Nc3ccc(F)cc3F)c(O)c3cccnc32)c1` returned an RP-LC retention time of 1220 s. Next, `O=C(NCC(O)c1ccc(C(F)(F)F)cc1)c1ccco1` (stereo not drawn): 711 s; `O=C(NCc1ccco1)c1ccc(Nc2c(-c3ccccc3)nc3cnccn23)cc1`: 733 s. Next, `CCCN(C)C(=O)COc1ccc(NC(=O)C2CC2)cn1`: 666 s; `COc1ccc(S(=O)(=O)N2CCc3nc(-c4ccc(F)cc4)ncc3C2)cc1OC`: 983 s. Under `COc1cccc(NS(=O)(=O)c2cn(C(C)C)c3ncccc23)c1` stands 846 s. Consider `COc1cccc(Oc2nccn3c(=O)n(CC(=O)Nc4ccccc4C(F)(F)F)nc23)c1`, for which the RP-LC retention time was found to be 850 s.

Consider `CCn1c(C)c(C(=O)CN(CC2CCCO2)C(=O)c2ccc(Cl)cc2)c(C)c1C(=O)OC` (stereo not drawn), for which the RP-LC retention time was found to be 978 s. In the case of `Cc1ccc(NC(=O)C2CCCN(c3cc(=O)n(C)c(=O)n3C)C2)cc1C` (stereo not drawn), the RP-LC retention time was determined as 746 s. As for `COc1ccc(-c2csc(SCc3ccc(C(=O)N4CCOCC4)o3)n2)cc1OC`, the RP-LC retention time stood at 783 s. Consider `COc1ccc(C2CC(=O)Nc3c(C(=O)O)cn(-c4cccc(C(F)(F)F)c4)c32)cc1OC` (stereo not drawn), for which the RP-LC retention time is 780 s. Next, `CC(C)c1ccc(CN2C[C@@H]3C(=O)N(CCc4ccccc4)C(=O)[C@@H]3C2)cc1`: 772 s. As for `CCN1C(=O)COc2ccc(-c3csc(NC(=O)c4cccc(OC)c4)n3)cc21`, the RP-LC retention time is 967 s. Molecule `CCN(CCCNC(=O)C1CCCN(c2ncnc3c2oc2ccccc23)C1)c1ccccc1` (stereo not drawn) yielded an RP-LC retention time of 649 s. `O=C(Cn1cc(-c2ccccc2)c2ncnc(N3CCOCC3)c21)NCc1ccc(Cl)cc1` registered an RP-LC retention time of 778 s. Next, `CCc1nnc(-c2ccc3ccn(CC(=O)Nc4ccc(Cl)cn4)c3c2)o1`: 843 s; `Cc1sc(NC(=O)Cn2c(=O)sc3ccccc32)nc1-c1ccccc1`: 980 s.

Take `Cc1ccn2c(NC(=O)c3cccs3)c(-c3ccccc3)nc2c1`: the RP-LC retention time was 633 s. Take `O=C(Cn1nc2c3cc(F)ccc3ncn2c1=O)Nc1ccc2c(c1)OCO2`: the RP-LC retention time was 668 s.

`CCC(C)N(C)C(=O)c1cc2ccccc2c(-c2ccccc2Cl)n1` (stereo not drawn): the RP-LC retention time amounted to 1110 s. Under `CCOC(=O)c1c(C)[nH]c(C(=O)N2CCC(C(C)C(=O)NCc3ccc(F)cc3Cl)CC2)c1C` (stereo not drawn) stands 863 s. Next, `Cc1ccc(OCC(=O)N(C)CC2(C)CCOCC2)cc1`: 799 s. `Cc1ccc(N2C(=O)CN(S(C)(=O)=O)CC2(C)C(=O)NCc2ccc(F)cc2)c(C)c1` (stereo not drawn) gave an RP-LC retention time of 834 s. Next, `CCOC(=O)c1cnc(N2CCN(c3cccc(Cl)c3)CC2)c2ccccc12`: 652 s; `CCn1c(=O)sc2cc(S(=O)(=O)N3CCC(C(=O)N(C)C4CCCCC4)CC3)ccc21`: 958 s. Under `CCOC(=O)C1=C(CN2CCC(C(=O)OCC)CC2)NC(=O)NC1c1ccc(F)cc1` (stereo not drawn) stands 650 s; under `Cn1c(=O)c(N2CCC(NC(=O)Nc3ccccc3Cl)CC2)nc2cccnc21`, 904 s; under `Cc1ccc(Nc2c(-c3cccc(Cl)c3)nc3cccc(C)n23)cc1`, 836 s. Under `O=C(CC1CCCCC1)Nc1ccc(-c2nc(-c3ccccc3)co2)cc1` stands 1270 s.

In the case of `O=C1C2N=NN(Cc3nc(-c4cccc(Cl)c4)no3)C2C(=O)N1c1ccc2c(c1)CCC2` (stereo not drawn), the RP-LC retention time was 1130 s. Next, `CC(=O)c1cccc(NC(=O)c2noc3c2CCCC3)c1`: 874 s; `CC(=O)c1cccc(NC(=O)N2CCN(c3cnn4c(C)nnc4c3)CC2)c1`: 600 s. Next, `Cn1cc2c(N3CCCC3)nc(C(=O)NCCN3CCc4ccccc4C3)nc2n1`: 523 s. `O=c1ccc(S(=O)(=O)N2CCOCC2)cn1Cc1cc(F)cc(F)c1`: the RP-LC retention time was 791 s. Under `CN1C(=O)Cc2cc(C(=O)N3CCN(c4ccccc4F)CC3)ccc21` stands 765 s; under `O=C(c1ccsc1)N1CCC(OCc2nc(C3CC3)no2)CC1`, 762 s. Under `COc1ccccc1N1C=C(C#N)S(=O)(=O)c2ccccc21` stands 871 s; under `COC(=O)c1ccccc1NC(=O)CN1CCC(c2nc(-c3cccc(F)c3)no2)CC1`, 738 s. Under `CC(=O)Nc1cccc(N2CC(C(=O)Nc3cccc(C(F)(F)F)c3)CC2=O)c1` (stereo not drawn) stands 775 s; under `Cc1[nH]c(C(=O)N2CCC(CC(=O)N3CCN(c4ccccn4)CC3)CC2)c(C)c1C(=O)OC(C)C`, 628 s.

`Cn1c(=O)c2cc(C(=O)NCc3ccccc3Cl)sc2n(C)c1=O` registered an RP-LC retention time of 795 s. Under `CCn1cc(-c2nc(C)c(C(=O)NCc3ccc4c(c3)OCO4)s2)c2cccnc21` stands 925 s. In turn, `COc1ccccc1-c1noc(Cn2c(=O)n(Cc3ccc4c(c3)OCO4)c(=O)c3sccc32)n1` displayed an RP-LC retention time of 956 s. Next, `CCOc1ccccc1CN1CCc2nc(N3CCN(CC)CC3)ncc2C1`: 1120 s. On to `CCNS(=O)(=O)c1cccnc1Nc1ccc(Cl)c(F)c1`, for which the RP-LC retention time was 1090 s. Under `Cc1ccccc1-n1ccn(Cc2nc(-c3ccc(F)c(Cl)c3)no2)c(=O)c1=O` stands 942 s; under `CNC(=O)[C@@H]1CN(C(=O)CCc2cc(OC)no2)C[C@H]1c1n[nH]c(C)n1`, 553 s; under `CS(=O)(=O)Nc1cccc(OCc2nnc(-c3ccccc3)o2)c1`, 798 s. Next, `CC(=O)N1CCc2cc(N3CC(C(=O)Nc4cccc(Br)c4)CC3=O)ccc21` (stereo not drawn): 780 s. Next, `CC1CCN(CCNC(=O)c2cccc3c2SCCC3=O)CC1`: 588 s. As to `Fc1cc(F)cc(Cn2cccc2-c2nc(-c3ccncc3)no2)c1`, the RP-LC retention time was determined as 1110 s. Molecule `COc1ccc(-c2nc(CN(c3ccccc3)S(=O)(=O)c3cccs3)c(C)o2)cc1` yielded an RP-LC retention time of 1130 s. Molecule `COc1ccc(-c2noc(Cn3c(=O)n(C(C)C)c(=O)c4ccccc43)n2)cc1OC` had an RP-LC retention time of 1000 s. The molecule `CCN1CCN(c2cc(C)c3cc(NC(=S)NCc4ccc(F)cc4Cl)ccc3n2)CC1` yielded an RP-LC retention time of 657 s. Next, `CN(C)CCNC(=O)c1ncn2c1C(=O)N(C1CC1)C(C)(C(=O)NCc1ccc(F)cc1)C2` (stereo not drawn): 600 s; `O=C1CC(c2noc(-c3cc(F)cc(F)c3)n2)CN1c1ccc(Cl)cc1` (stereo not drawn): 1100 s. Under `O=C(Nc1cccc(C(F)(F)F)c1)NC1CCN(c2cc(N3CCCC3)cnn2)C1` (stereo not drawn) stands 617 s. Under `COc1ccc(OC)c(C(O)CN2CCN(c3ccccc3F)CC2)c1` (stereo not drawn) stands 677 s; under `Cn1nccc1C(=O)N1CCCC1c1nc(-c2ccc(F)cc2F)no1` (stereo not drawn), 794 s.

Take `COCCNC(=O)CCc1cc2cc(C)ccc2[nH]c1=O`: the RP-LC retention time was determined as 637 s. Under `COc1cc(NC(=O)C2=C(C)OCCS2)c(Cl)cc1C(=O)N1CCN(c2ccccn2)CC1` stands 668 s; under `Cc1ccc2c(c1)N(S(C)(=O)=O)CCC(C(=O)Nc1ccc(C(F)(F)F)cc1)O2` (stereo not drawn), 1090 s. Under `O=C1NCCCCCCN(C(=O)c2cnccn2)[C@H]2CCC[C@@H]12` stands 632 s; under `O=c1c2scc(-c3cccc(F)c3)c2ncn1Cc1cccc(Br)c1`, 1180 s. Under `Cc1nc2cc(-c3noc(-c4ccc(F)cc4)n3)ccc2n(C(C)C)c1=O` stands 1200 s. Turning to `CCc1cccc(C)c1Nc1c(-c2cc(Br)ccc2O)nc2ncccn12`, the RP-LC retention time amounted to 1090 s. `O=C(Cn1c(=O)n(C2CCCCC2)c2ncccc21)NCc1cccnc1`: the RP-LC retention time was 603 s.

Molecule `Cc1cccc(-c2noc(-c3sccc3NC(=O)c3ccc4nc[nH]c4c3)n2)c1` had an RP-LC retention time of 957 s.
